Earlier results on one compound are cited in PubChem BioAssay AID1259410 (Chemical Carcinogenesis Research Information System (CCRIS), 2018).

The series has as its system rodent tumor promotion studies, tumor incidence. Briefly: CCRIS tumor promotion studies. The conditions noted are these: Route [Carcinogen]: DERMAL, Route [Promoter]: DERMAL, Species: MOUSE.

Turning to `CCCCCCCCCCCCCC(=O)O[C@@H]1[C@@H](C)[C@@]2(O)[C@@H](C=C(CO)C[C@]3(O)C(=O)C(C)=C[C@@H]23)[C@@H]2C(C)(C)[C@]12OC(C)=O`, the outcome runs as follows: (Carcinogen: 15,16-DIHYDRO-11-METHYLCYCLOPENTA[A]PHENANTHREN-17-ONE, 892-17-1, Doses [Carcinogen]: 1632 NMOL IN 100 µL TOLUENE ONCE, Doses [Promoter]: 0, 2 UG IN 50 µL ACETONE 2/WK FOR 19 WK BEGINNING 1 WK POST CARCINOGEN TREATMENT (STUDY DURATION: 20 WK), Strain/Sex: SKH/HR-1/MALE) “skin: papilloma”; (Carcinogen: (+/-)-R,11-T-12-DIHYDROXY-T-13,14-EPOXY-11,12,13,14-TETRAHYDRODIBENZO[A,L]PYRENE, 159812-26-7, Doses [Carcinogen]: 1.33, 4, 12 NMOL IN 100 ML ACETONE ONCE, Doses [Carcinogen]: 1.33, 4, 12 NMOL IN 100 ML ACETONE ONCE, Doses [Promoter]: 1.62 NMOL IN 100 ML ACETONE 2/WK FOR 28 WK BEGINNING 1 WK POST CARCINOGEN DOSE (STUDY DURATION: 30 WK), Strain/Sex: SENCAR/FEMALE) “skin: tumor”; (Carcinogen: (+/-)-R-11,T-12-DIHYDROXY-C-13,14-EPOXY-11,12,13,14-TETRAHYDRODIBENZO[A,L]PYRENE, 159812-27-8, Doses [Carcinogen]: 1.33, 4, 12 NMOL IN 100 ML ACETONE ONCE, Doses [Carcinogen]: 1.33, 4, 12 NMOL IN 100 ML ACETONE ONCE, Doses [Promoter]: 1.62 NMOL IN 100 ML ACETONE 2/WK FOR 28 WK BEGINNING 1 WK POST CARCINOGEN DOSE (STUDY DURATION: 30 WK), Strain/Sex: SENCAR/FEMALE) “skin: tumor”; (Carcinogen: (+/-)-TRANS-1,2-DIHYDRO-1,2-DIHYDROXY-5-METHYLCHRYSENE, 96741-20-7, Doses [Carcinogen]: 33, 100 NMOL IN 0.1 ML ACETONE ONCE, Doses [Promoter]: 2.5 UG IN 0.1 ML ACETONE 3/WK FOR 25 WK BEGINNING 10 D POST INITIATION (STUDY DURATION: 27 WK), Strain/Sex: CD-1/FEMALE) “skin: tumors”; (Carcinogen: (+/-)-TRANS-1,2-DIHYDROXY-ANTI-3,4-EPOXY-1,2,3,4-TETRAHYDRO-5-METHYLCHRYSENE, 96790-39-5, Doses [Carcinogen]: 33, 100 NMOL IN 0.1 ML ACETONE ONCE, Doses [Promoter]: 2.5 UG IN 0.1 ML ACETONE 3/WK FOR 25 WK BEGINNING 10 D POST INITIATION (STUDY DURATION: 27 WK), Strain/Sex: CD-1/FEMALE) “skin: tumors”; (Carcinogen: (+/-)-TRANS-7,8-DIHYDRO-7,8-DIHYDROXY-5-METHYLCHRYSENE, 96741-21-8, Doses [Carcinogen]: 33, 100 NMOL IN 0.1 ML ACETONE ONCE, Doses [Promoter]: 2.5 UG IN 0.1 ML ACETONE 3/WK FOR 25 WK BEGINNING 10 D POST INITIATION (STUDY DURATION: 27 WK), Strain/Sex: CD-1/FEMALE) “skin: tumors”. Moreover, the outcome was “skin: tumor” (Carcinogen: ANTI-1,2-DIHYDROXY-3,4-EPOXY-1,2,3,4-TETRAHYDRO-5,6-DIMETHYLCHRYSENE, 139347-89-0, Doses [Carcinogen]: 33, 100, 400 NMOL IN 0.1 ML ACETONE ONCE, Doses [Carcinogen]: 33, 100, 400 NMOL IN 0.1 ML ACETONE ONCE, Doses [Promoter]: 0, 2.5 UG IN 0.1 ML ACETONE 3/WK FOR 20 WK BEGINNING 10 D POST CARCINOGEN DOSE (STUDY DURATION: 20 WK), Strain/Sex: CD-1/FEMALE); “skin: tumor” (Carcinogen: ANTI-4,3-DIHYDROXY-2,1-EPOXY-4,3,2,1-TETRAHYDROBENZO[C]PHENANTHRENE, 75443-72-0, Doses [Carcinogen]: 100, 400 NMOL IN 0.1 ML ACETONE ONCE, Doses [Promoter]: 0, 2.5 UG IN 0.1 ML ACETONE 3/WK FOR 20 WK BEGINNING 10 D POST CARCINOGEN DOSE (STUDY DURATION: 20 WK), Strain/Sex: CD-1/FEMALE); “skin: papilloma, carcinoma” (Carcinogen: BENZO[A]PYRENE, 50-32-8, Doses [Carcinogen]: 0, 2.52, 12.6, 50.5, 101 UG IN ACETONE ONCE, Doses [Carcinogen]: 0, 2.52, 12.6, 50.5, 101 UG IN ACETONE ONCE, Doses [Promoter]: 0, 2 UG IN ACETONE 2/WK FOR 52 WK (STUDY DURATION: 1 YR), Strain/Sex: SENCAR/FEMALE); “skin: papilloma, carcinoma” (Carcinogen: BENZO[A]PYRENE, 50-32-8, Doses [Carcinogen]: 0, 2.52, 12.6, 50.5, 101 UG IN ACETONE ONCE, Doses [Carcinogen]: 0, 2.52, 12.6, 50.5, 101 UG IN ACETONE ONCE, Doses [Promoter]: 0, 2 UG IN ACETONE 2/WK FOR 52 WK (STUDY DURATION: 1 YR), Strain/Sex: SENCAR/MALE); “skin: tumor” (Carcinogen: BENZO[A]PYRENE, 50-32-8, Doses [Carcinogen]: 20, 100 NMOL IN 100 µL ACETONE ONCE, Doses [Promoter]: 3.24 NMOL/100 µL ACETONE 2/WK BEGINNING 2 WK POST CARCINOGEN DOSE AND CONTINUING FOR 24 WK (STUDY DURATION: 27 WK), Strain/Sex: SENCAR/FEMALE); “skin: tumor” (Carcinogen: BENZO[A]PYRENE, 50-32-8, Doses [Carcinogen]: 33.3, 100, 300 NMOL IN 100 µL ACETONE ONCE, Doses [Carcinogen]: 33.3, 100, 300 NMOL IN 100 µL ACETONE ONCE, Doses [Promoter]: 3.24 NMOL/100 µL ACETONE ONCE 1 WK POST CARCINOGEN DOSE THEN 2/WK BEGINNING 3 WK LATER AND CONTINUING FOR 11 WK (STUDY D, Strain/Sex: SENCAR/FEMALE).
